What was measured:
[1] = Rat intravenous pharmacokinetics; assay type: in vivo; conditions: for MRT: iv
Experimental: All animal housing and experimental procedures were approved by the Vanderbilt University Animal Care and Use committee and followed the guidelines set forth by the Guide for the Care and Use of Laboratory Animals. VU0542270 was formulated as a solution in ethanol, PEG400, and saline (1:4:5 v/v, respectively) at a concentration of 1 mg/mL and administered as a single 1-mg/kg IV dose (1 mL/kg) to male Sprague Dawley rats (n = 2; between 366–418 g body weights) via injection into a surgically implanted jugular vein catheter. Blood samples were collected serially from a surgically implanted carotid artery catheter in each animal over multiple postadministration time points (0.033, 0.117, 0.25, 0.5, 1, 2, 4, 7, and 24 hours) into chilled K2EDTA anticoagulant-fortified tubes and immediately placed on wet ice. The blood samples were then centrifuged [1700 relative centrifugal force (rcf), 5 minutes, 4°C] to obtain plasma samples, which were stored at −80°C until analysis by liquid chromatography tandem mass spectrometry (LC-MS/MS). The intravenous pharmacokinetic (PK) data were used for the calculation of relevant intravenous pharmacokinetic parameters [plasma clearance (CLp), volume of steady state, elimination half-life (t1/2), and mean residence time]. In vivo pharmacokinetic parameters of VU0542270 were determined from the observed individual animal time-versus-concentration data using noncompartmental analysis via WinNonlin (WNL; v.5.3, Pharsight Corp., Mountain View, CA.).
Plasma samples from the in-life phases of the studies were thawed at ambient temperature (benchtop), and then aliquots (20 µL per sample) were transferred to a 96-shallow-well (V-bottom) plate. Matrix-matched quality-control samples and a standard curve of VU0542270 (1 mg/mL DMSO stock solution) were prepared in blank rat plasma (K2EDTA treated) or blank brain homogenate via serial dilution and transferred (20 µL each) to the plate along with multiple blank plasma and brain homogenate samples. Acetonitrile (120 µL) containing internal standard (50 nM carbamazepine) was added to each well of the plate to precipitate protein. The plate was then centrifuged (4000 rcf, 5 minutes, ambient temperature), and resulting supernatants (60 µL each) were transferred to a new 96-shallow-well (V-bottom) plate containing an equal volume (60 µL per well) of water (Milli-Q purified). The plate was then sealed in preparation for LC-MS/MS analysis (see below).
Prepared samples were injected (10 µL each) onto an AB Sciex triple quad-4500 mass spectrometer system with an Agilent 1290 Infinity Binary Pump and multisampler. Analytes were separated on a reverse phase column Phenomenex Kinetex C18 (50 × 2.1 mm, 5 µm) that was thermostated at 40°C. High-pressure liquid chromatography mobile phase A was 0.5% formic acid in water (pH unadjusted); mobile phase B was 0.5% formic acid in acetonitrile (pH unadjusted). […] The column was re-equilibrated (1 minute) before the next sample injection. The total run time was 2.55 minutes, and the high-pressure liquid chromatography flow rate was 0.5 ml/min. The source temperature was set at 500°C, and mass spectral analyses were performed using a Turbo-Ion spray source in positive ionization mode (5.0-kV spray voltage) and using multiple-reaction monitoring of transitions specific for both analyte (m/z 335.7–236.7 at 35 eV) and internal standard (m/z 237.0–193.9 at 25 eV). Quantitation of VU0542270 was performed via AB Sciex Analyst software using the raw analyte:IS peak area ratios. The typical detection range for VU0542270 was 0.5 ng/mL to ≥5000 ng/mL, utilizing a quadratic equation regression with 1/x^2 weighting.

[2] = Plasma binding by equilibrium dialysis, human; assay type: in vitro ADME; conditions: equilibrium dialysis 6 hours 37°C, read-out: Fu, plasma (human)
Experimental: Determination of VU0542270 fraction unbound (fu) in plasma from mouse, rat, and human was conducted in vitro via equilibrium dialysis using high-throughput dialysis (HTD) membrane plates. Dialysis membranes (four paired strips per HTD assay) were hydrated as described by the manufacturer and inserted into the HTD plate, which was assembled and prepared for sample addition by the dispensing of blank buffer [Delbecco’s phosphate buffered saline (DPBS), 100 µL/well] into the “top half” of each membrane-split well. VU0542270 was diluted into plasma from each species (5 µM final concentration), which was aliquoted in triplicate to the “bottom half” of the prepared HTD plate wells. The HTD plate was sealed and incubated for 6 hours at 37°C. Following incubation, each well (both top and bottom halves) was transferred (20 µL) to the corresponding well of a 96-shallow-well (V-bottom) plate. […]
fu was calculated as (analyte to IS mass spectrometry (MS) peak area ratio from Trans-buffer side)/(analyte to IS MS peak area ratio from Cis-plasma side). Mean values for each species were calculated from three replicates.

[3] = Brain:plasma distribution in rat; assay type: in vivo; conditions: male, Sprague Dawley, brain and plasma, IV 0.2 mg/kg, 15 minutes postdose
Experimental: VU0542270 was formulated as a solution in ethanol, PEG400, and saline (1:4:5 v/v, respectively) and administered to male Sprague Dawley rats (n = 1) intravenously at 0.2 mg/kg. At 15 minutes postdose, a blood sample was collected terminally into chilled K2EDTA anticoagulant-fortified tubes and immediately placed on wet ice. The blood sample was then centrifuged (1700 rcf, 5 minutes, 4°C) to obtain a plasma sample. At the same postadministration time point(s), a whole-brain sample was obtained by rapid dissection, rinsing with PBS, and immediate freezing in individual tissue collection boxes (dry ice). All brain and plasma samples were stored at −80°C until analysis by LC-MS/MS. In vivo brain:plasma distribution partition coefficient of VU0542270 was determined from the observed animal brain versus plasma concentrations.
Plasma samples from the in-life phases of the studies were thawed at ambient temperature (benchtop), and then aliquots (20 µL per sample) were transferred to a 96-shallow-well (V-bottom) plate. […]
Prepared samples were injected (10 µL each) onto an AB Sciex triple quad-4500 mass spectrometer system with an Agilent 1290 Infinity Binary Pump and multisampler. […] Quantitation of VU0542270 was performed via AB Sciex Analyst software using the raw analyte:IS peak area ratios. […]

- half-life ([1]; male, Sprague Dawley, plasma, 1 mg/kg, rat IV PK): 38.4 min
- clearance ([1]; male, Sprague Dawley, plasma, rat, 1 mg/kg IV, read-out: CLp): 17.7 mL/min/kg
- Vd ([1]; male, Sprague Dawley, plasma, rat, 1 mg/kg IV, read-out: Vss): 0.2 L/kg
- MRT ([1]; male, Sprague Dawley, rat, plasma, 1 mg/kg, 1 mg/kg IV): 11.4 min
- MRT ([1]; male, Sprague Dawley, rat, plasma, 1 mg/kg, rat IV PK): 10.2 min
- t1/2 ([1]; rat, 1 mg/kg IV): 38.4 min
- fraction unbound at 6 h, 5 µM [2]: 0.01
- Kp at 0.25 h [3]: 0.11
SMILES: Cc1nc(-c2cccs2)sc1CNC(=O)Nc1cccs1 [VU0542270]

Reference: publication PMC10877733, “Discovery and Characterization of VU0542270, the First Selective Inhibitor of Vascular Kir6.1/SUR2B KATP Channels” (Molecular Pharmacology, 2024)
